Columns and labels:
Assay type in all cases: functional
MDA-MB-435 = assay: Antiproliferative activity against human MDA-MB-435 cells assessed as cell growth at 0.5 uM by SRB assay; settings: read-out: Activity
SF-539 = assay: Antiproliferative activity against human SF539 cells assessed as cell growth at 500 uM by SRB assay; settings: read-out: Activity
HCT-116 = assay: Antiproliferative activity against human HCT116 cells assessed as cell growth at 500 uM by SRB assay; settings: read-out: Activity
Malme-3M [1] = assay: Antiproliferative activity against human MALME-3M cells assessed as cell growth at 50 uM by SRB assay; settings: read-out: Activity
[2] = Antiproliferative activity against human Hs 578T cells assessed as cell growth at 5 uM by SRB assay; settings: read-out: Activity
UACC-62 = assay: Antiproliferative activity against human UACC62 cells assessed as cell growth at 500 uM by SRB assay; settings: read-out: Activity
DU-145 = assay: Antiproliferative activity against human DU145 cells assessed as cell growth at 0.5 uM by SRB assay; settings: read-out: Activity
HCC 2998 = assay: Antiproliferative activity against human HCC2998 cells assessed as cell growth at […] by SRB assay; settings: read-out: Activity
SF-295 [3] = assay: Antiproliferative activity against human SF295 cells assessed as cell growth at 500 uM by SRB assay; settings: read-out: Activity
SNB-75 = assay: Antiproliferative activity against human SNB75 cells assessed as cell growth at 0.5 uM by SRB assay; settings: read-out: Activity
T47D = assay: Antiproliferative activity against human T47D cells assessed as cell growth at 500 uM by SRB assay; settings: read-out: Activity
SK-MEL-5 [4] = assay: Antiproliferative activity against human SK-MEL-5 cells by SRB assay
HL-60(TB) = assay: Antiproliferative activity against human HL-60(TB) cells by SRB assay
OVCAR-8 [5] = assay: Antiproliferative activity against human OVCAR8 cells assessed as cell growth at 50 uM by SRB assay; settings: read-out: Activity
SK-MEL-5 [6] = assay: Antiproliferative activity against human SK-MEL-5 cells assessed as cell growth at 500 uM by SRB assay; settings: read-out: Activity
[7] = Antiproliferative activity against human Hs 578T cells assessed as cell growth at […] by SRB assay; settings: read-out: Activity
SF-295 [8] = assay: Antiproliferative activity against human SF295 cells assessed as cell growth at 0.5 uM by SRB assay; settings: read-out: Activity
A498 = assay: Antiproliferative activity against human A498 cells assessed as cell growth at 500 uM by SRB assay; settings: read-out: Activity
A549 = assay: Antiproliferative activity against human A549 cells assessed as cell growth at 5 uM by SRB assay; settings: read-out: Activity
HOP-62 = assay: Antiproliferative activity against human HOP62 cells assessed as cell growth at 50 uM by SRB assay; settings: read-out: Activity
HCT-15 [9] = assay: Antiproliferative activity against human HCT15 cells by SRB assay
NCI/ADR-RES [10] = assay: Antiproliferative activity against human NCI/ADR-RES cells assessed as cell growth at 5 uM by SRB assay; settings: read-out: Activity
SN12C = assay: Antiproliferative activity against human SN12C cells assessed as cell growth at 500 uM by SRB assay; settings: read-out: Activity
K562 = assay: Antiproliferative activity against human K562 cells by SRB assay
MOLT-4 [11] = assay: Antiproliferative activity against human MOLT4 cells assessed as cell growth at 5 uM by SRB assay; settings: read-out: Activity
SF-295 [12] = assay: Antiproliferative activity against human SF295 cells assessed as cell growth at 50 uM by SRB assay; settings: read-out: Activity
SW-620 = assay: Antiproliferative activity against human SW620 cells by SRB assay
SK-MEL-2 [13] = assay: Antiproliferative activity against human SK-MEL-2 cells assessed as cell growth at 500 uM by SRB assay; settings: read-out: Activity
[14] = Antiproliferative activity against human […] cells assessed as cell growth at 5 uM by SRB assay; settings: read-out: Activity
MOLT-4 [15] = assay: Antiproliferative activity against human MOLT4 cells assessed as cell growth at 500 uM by SRB assay; settings: read-out: Activity
OVCAR-8 [16] = assay: Antiproliferative activity against human OVCAR8 cells assessed as cell growth at 0.5 uM by SRB assay; settings: read-out: Activity
HT-29 = assay: Antiproliferative activity against human HT-29 cells by SRB assay
UACC-257 = assay: Antiproliferative activity against human UACC257 cells by SRB assay
NCI/ADR-RES [17] = assay: Antiproliferative activity against human NCI/ADR-RES cells by SRB assay
OVCAR-4 = assay: Antiproliferative activity against human OVCAR4 cells assessed as cell growth at 0.5 uM by SRB assay; settings: read-out: Activity
SK-OV-3 = assay: Antiproliferative activity against human SKOV3 cells by SRB assay
HCT-15 [18] = assay: Antiproliferative activity against human HCT15 cells assessed as cell growth at 500 uM by SRB assay; settings: read-out: Activity
Malme-3M [19] = assay: Antiproliferative activity against human MALME-3M cells assessed as cell growth at 5 uM by SRB assay; settings: read-out: Activity
[20] = Antiproliferative activity against human Hs 578T cells assessed as cell growth at 500 uM by SRB assay; settings: read-out: Activity
SK-MEL-2 [21] = assay: Antiproliferative activity against human SK-MEL-2 cells assessed as cell growth at 5 uM by SRB assay; settings: read-out: Activity
[22] = read-out: LC50 (the source's name)
[23] = read-out: pLC50 (the source's name) (converted)

Work on `O=C(/C=C/c1ccc(O)c(O)c1)OCCc1ccc(O)c(O)c1` yielded a growth at 0.5 µM (MDA-MB-435) of 99%, a growth at 500 µM (SF-539) of 55% and a growth at 500 µM (HCT-116) of 65%. It also gave a growth at 50 µM (Malme-3M [1]) of 102%, a growth at 5 µM [2] of 80% and a growth at 500 µM (UACC-62) of 52%. It also gave a growth at 0.5 µM (DU-145) of 102%, a growth (HCC 2998) of 18% and a growth at 500 µM (SF-295 [3]) of 92%. For the same compound, the growth at 0.5 µM (SNB-75) was 81%, the growth at 500 µM (T47D) was 71% and the GI50 (SK-MEL-5 [4]; read-out: GI50) was 8.12 µM. It also gave a CC50 (SK-MEL-5 [4]; [22]) greater than 50 µM, a TGI (SK-MEL-5 [4]; read-out: TGI) of 47.7 µM and a GI50 (SK-MEL-5 [4]; read-out: pGI50 (converted)) of 8.13 µM. For the same compound, the CC50 (SK-MEL-5 [4]; [23]) was greater than 50.1 µM, the TGI (SK-MEL-5 [4]; read-out: pTGI (converted)) was 47.9 µM and the GI50 (HL-60(TB); read-out: GI50) was 2.54 µM. For the same compound, the CC50 (HL-60(TB); [22]) was greater than 50 µM, the TGI (HL-60(TB); read-out: TGI) was 17.7 µM and the GI50 (HL-60(TB); read-out: pGI50 (converted)) was 2.63 µM. For the same compound, the CC50 (HL-60(TB); [23]) was greater than 50.1 µM, the TGI (HL-60(TB); read-out: pTGI (converted)) was 17.8 µM and the growth at 50 µM (OVCAR-8 [5]) was 78%. For the same compound, the growth at 500 µM (SK-MEL-5 [6]) was 64%, the growth [7] was 9% and the growth at 0.5 µM (SF-295 [8]) was 98%. It also gave a growth at 500 µM (A498) of 68%, a growth at 5 µM (A549) of 97% and a growth at 50 µM (HOP-62) of 97%. It also gave a GI50 (HCT-15 [9]; read-out: GI50) of 2.25 µM, a CC50 (HCT-15 [9]; [22]) greater than 50 µM and a TGI (HCT-15 [9]; read-out: TGI) greater than 50 µM. It also gave a GI50 (HCT-15 [9]; read-out: pGI50 (converted)) of 1.41 µM, a CC50 (HCT-15 [9]; [23]) greater than 50.1 µM and a TGI (HCT-15 [9]; read-out: pTGI) greater than 50.1 µM. It also gave a growth at 5 µM (NCI/ADR-RES [10]) of 98%, a growth at 500 µM (SN12C) of 65% and a GI50 (K562; read-out: GI50) of 1.56 µM. The CC50 (K562; [22]) was greater than 50 µM, the TGI (K562; read-out: TGI) was 19.9 µM and the GI50 (K562; read-out: pGI50 (converted)) was 1.55 µM. It also gave a CC50 (K562; [23]) greater than 50.1 µM, a TGI (K562; read-out: pTGI (converted)) of 20 µM and a growth at 5 µM (MOLT-4 [11]) of 97%. The growth at 50 µM (SF-295 [12]) was 87%, the GI50 (SW-620; read-out: GI50) was 10.2 µM and the CC50 (SW-620; [22]) was greater than 50 µM. It also gave a TGI (SW-620; read-out: TGI) greater than 50 µM, a GI50 (SW-620; read-out: pGI50 (converted)) of 10.2 µM and a CC50 (SW-620; [23]) greater than 50.1 µM. For the same compound, the TGI (SW-620; read-out: pTGI) was greater than 50.1 µM, the growth at 500 µM (SK-MEL-2 [13]) was 38% and the growth at 5 µM [14] was 70%. For the same compound, the growth at 500 µM (MOLT-4 [15]) was 39%, the growth at 0.5 µM (OVCAR-8 [16]) was 78% and the GI50 (HT-29; read-out: GI50) was 28.5 µM. It also gave a CC50 (HT-29; [22]) greater than 50 µM, a TGI (HT-29; read-out: TGI) greater than 50 µM and a GI50 (HT-29; read-out: pGI50 (converted)) of 28.2 µM. For the same compound, the CC50 (HT-29; [23]) was greater than 50.1 µM, the TGI (HT-29; read-out: pTGI) was greater than 50.1 µM and the GI50 (UACC-257; read-out: GI50) was 15.4 µM. The CC50 (UACC-257; [22]) was greater than 50 µM, the TGI (UACC-257; read-out: TGI) was greater than 50 µM and the GI50 (UACC-257; read-out: pGI50 (converted)) was 15.5 µM. The CC50 (UACC-257; [23]) was greater than 50.1 µM, the TGI (UACC-257; read-out: pTGI) was greater than 50.1 µM and the GI50 (NCI/ADR-RES [17]; read-out: GI50) was 10.9 µM. For the same compound, the CC50 (NCI/ADR-RES [17]; [22]) was greater than 50 µM, the TGI (NCI/ADR-RES [17]; read-out: TGI) was 44.9 µM and the GI50 (NCI/ADR-RES [17]; read-out: pGI50 (converted)) was 10.5 µM. For the same compound, the CC50 (NCI/ADR-RES [17]; [23]) was greater than 50.1 µM, the TGI (NCI/ADR-RES [17]; read-out: pTGI (converted)) was 44.7 µM and the growth at 0.5 µM (OVCAR-4) was 99%. The GI50 (SK-OV-3; read-out: GI50) was 13.7 µM, the CC50 (SK-OV-3; [22]) was greater than 50 µM and the TGI (SK-OV-3; read-out: TGI) was greater than 50 µM. For the same compound, the GI50 (SK-OV-3; read-out: pGI50 (converted)) was 13.2 µM, the CC50 (SK-OV-3; [23]) was greater than 50.1 µM and the TGI (SK-OV-3; read-out: pTGI) was greater than 50.1 µM. The growth at 500 µM (HCT-15 [18]) was 38%, the growth at 5 µM (Malme-3M [19]) was 98% and the growth at 500 µM [20] was 67%. For the same compound, the growth at 5 µM (SK-MEL-2 [21]) was 95%.

From ChEMBL document CHEMBL1154899, “Synthesis and biological evaluation of caffeic acid 3,4-dihydroxyphenethyl ester” (J Nat Prod, 2010)
